Experimental data as given in patent publication US20150313209A1, “SOLUTION FOR PRESERVING VASCULAR CONDUITS” (SOMAHLUTION, LLC, priority 2012, published 2015).

Experiment: Stability of ascorbic acid and reduced glutathione in solution over time (chromatography with electrospray MS / photo diode array detection)
Type: physicochemical
Settings: stored at room temperature
Procedure: A second solution and the final formulation from Example 1 were analyzed to evaluate the stability of ascorbic acid and reduced glutathione over a period of time at room temperature. The final formulation was formed by mixing together the first and second solutions and its pH was adjusted to about 7.4. […] The stability of ascorbic acid and the stability of reduced glutathione were determined over a period of time in both solutions. Both the final formulation and the second solution were stored at room temperature. The chromatography method developed and employed for this study separated the ascorbic acid and glutathione reproducibly and without any mutual interference between the components or their decomposition products. Two components were detected using electrospray spectrometry in +ve selected ion monitoring mode. In addition L-Ascorbic acid, and L-glutathione were also detected by photo diode array absorbing in the 190-400 nm range. The integrated chromatographic intensities of each of the component peaks was a measure of its molar quantity in solution analyzed. The pH, conductivity, and osmolalities were also measured for each sample. The stability indicating properties of GALA were evaluated at: 40° C.±2° C./75% RH±5% Relative Humidity (RH). A qualified stability chamber with uniform and constant temperature and relative humidity was used for storing the product containers. The chamber's thermometer and digital readout were recorded daily. Samples received for the proposed stability study were logged and tracked in a Sample Receipt and Storage Log and maintained at 2-8° C. until the commencement of the study. A minimum of twenty one containers of the device from each representative batch of the first and second solutions were placed in the stability chamber maintained at 40° C.±2° C./75% RH±5% RH. This date was recorded as the zero time point. Three containers of each of the first and second solutions were pulled at 0, 5, 9, 15, 30, 50, and 80-day intervals from the stability chamber for testing.

[1] = in the final formulation (first and second solutions mixed) having a pH of about 7.4
[2] = in the second solution having a pH of about 3.0

Row | Structure (SMILES) | rate of decay [1] | rate of decay [2]
1 | O=C1O[C@H]([C@@H](O)CO)C(O)=C1O [ascorbic acid, L-ascorbic acid] | about 15 mg per day | about 3 mg per day
2 | N[C@@H](CCC(=O)N[C@@H](CS)C(=O)NCC(=O)O)C(=O)O [reduced glutathione, L-glutathione (reduced)] | about 6 mg per day | about 3 mg per day
